The values that follow come from US20240415819A1, “MACROCYCLIC COMPOUNDS AS PROTEASOME SUBUNIT BETA TYPE-5 INHIBITORS” (Lead Discovery Center GmbH, priority 2021, published 2024).

Test [1] deals with T1, β5 subunit of the human immunoproteasome (IPS) (Homo sapiens, UniProt P28062).
T1 construct: purchased Boston Biochem E-370
The experiment in a line: β5 inhibition assay, human immunoproteasome (Suc-LLVY-AMC). The format is biochemical. The following applies: IC50 class, Suc-LLVY-AMC substrate. The procedure, abridged:
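β5 activity is read as liberated AMC fluorescence (355/460 nm) after 4 h dark reaction at RT with 22.6 μM Suc-LLVY-AMC, stopped by 1 μM bortezomib. Beforehand, 1 nM human IPS and compound sat 10 min at RT in HEPES pH 7.5 buffer containing NaCl, 0.02% SDS and DTT.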

In test [2] the test system is A549 (human lung carcinoma cell line). The experiment in a line: Glo assay of A549 cells (Table 3; ProteasomeGlo plating scheme). In kind it is cell-based. The following applies: Homo sapiens; A549 cells; read-out: PGLo A549. An outline of the steps: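 Compound treatment lasts 105 minutes at 37° C. under 5% CO2. Suc-LLVY-Glo substrate premixed with detection reagent (60 min at room temperature) is then added directly to the cells, and luminescence after 10-15 min in the dark gives the IC50 in nM.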

Bounds are passed on as bounds.

Turning to `Cc1ccc2cc1CNC(=O)[C@H](CCc1ccccc1)NC(=O)[C@@H](NC(=O)OCc1ccccc1)CCC(=O)N1CCCC(CCO2)C1` (stereo partly drawn) [Compound 199, benzyl ((9S,12S)-5^4-methyl-8,11,15-trioxo-9-phenethyl-4-oxa-7,10-diaza-1(3,1)-piperidina-5(1,3)-benzenacyclopentadecaphane-12-yl)carbamate], the IC50 in test [1] and in test [2] was less than 100 nM in each case.
For `CC(=O)N[C@H]1CCC(=O)N(C)CCCCOc2ccc(C)c(c2)CNC(=O)[C@H](CCc2ccccc2)NC1=O` [Compound 282, N-((11S,14S)-1^4,7-dimethyl-8,12,15-trioxo-1^4-phenethyl-2-oxa-7,13,16-triaza-1(1,3)-benzenacycloheptadecaphane-11-yl)acetamide], the IC50 was 500 to 1000 nM in test [1] and greater than 5000 nM in test [2].
In the same order, the values of `Cc1ccc2cc1CNC(=O)[C@H](CCc1ccccc1)NC(=O)[C@@H](NC(=O)C1CCC(C(F)(F)F)N1)CC(=O)N1CCCC(CCO2)C1` (stereo partly drawn) [Compound 157, N-((9S,12S)-5^4-methyl-8,11,14-trioxo-9-phenethyl-4-oxa-7,10-diaza-1(3,1)-piperidina-5(1,3)-benzenacyclotetradecaphane-12-yl)-5-(trifluoromethyl)pyrrolidine-2-carboxamide] are less than 100 nM and 100 to 500 nM.
`Cc1ccc2cc1CNC(=O)[C@H](CCc1ccccc1)NC(=O)[C@@H](NC(=O)CN1CCCC1)CC(=O)N1CCCC(CCO2)C1` (stereo partly drawn) [Compound 89, N-((9S,12S)-5^4-methyl-8,11,14-trioxo-9-phenethyl-4-oxa-7,10-diaza-1(3,1)-piperidina-5(1,3)-benzenacyclotetradecaphane-12-yl)-2-(pyrrolidin-1-yl)acetamide]: the IC50 in test [1] and in test [2] was less than 100 nM in each case.
In the case of `Cc1ccc2cc1CNC(=O)[C@H](CCc1ccccc1)NC(=O)[C@@H](Nc1ccccn1)CC(=O)N1CCCC(CCO2)C1` (stereo partly drawn) [Compound 36, (9S,12S)-5^4-methyl-9-phenethyl-12-(pyridin-2-ylamino)-4-oxa-7,10-diaza-1(3,1)-piperidina-5(1,3)-benzenacyclotetradecaphane-8,11,14-trione], the IC50 in test [1] is less than 100 nM; in test [2], 100 to 500 nM.
In the same order, the values of `Cc1ccc2cc1CNC(=O)[C@H](CCc1ccccc1)NC(=O)[C@@H](NC(=O)[C@@H](N)Cc1ccccc1)CC(=O)N1CCCC(CCO2)C1` (stereo partly drawn) [Compound 179, (2R)-2-amino-N-((9S,12S)-5^4-methyl-8,11,14-trioxo-9-phenethyl-4-oxa-7,10-diaza-1(3,1)-piperidina-5(1,3)-benzenacyclotetradecaphane-12-yl)-3-phenylpropanamide-] are less than 100 nM and less than 100 nM.
In the same order, the values of `CC(=O)N[C@H]1CCC(=O)N2CCCC(C2)Oc2ccc(C)c(c2)CNC(=O)[C@H](CCc2ccccc2)NC1=O` (stereo partly drawn) [Compound 148, N-((7S,10S)-3^4-methyl-6,9,13-trioxo-7-phenethyl-2-oxa-5,8-diaza-1(3,1)-piperidina-3(1,3)-benzenacyclotridecaphane-10-yl)acetamide] are less than 100 nM and greater than 5000 nM.
In the same order, the values of `Cc1ccc2cc1CNC(=O)[C@H](CCc1ccccc1)NC(=O)[C@@H](Nc1nc3ccccc3[nH]1)CC(=O)N1CCCC(CCO2)C1` (stereo partly drawn) [Compound 45, (9S,12S)-12-((1H-benzo[d]imidazol-2-yl)amino)-5^4-methyl-9-phenethyl-4-oxa-7,10-diaza-1(3,1)-piperidina-5(1,3)-benzenacyclotetradecaphane-8,11,14-trione] are less than 100 nM and 100 to 500 nM.
Take `Cc1ccc2cc1CNC(=O)[C@H](CCc1ccccc1)NC(=O)[C@@H](NC(=O)C1CC(F)(F)CN1)CC(=O)N1CCCC(CCO2)C1` (stereo partly drawn) [Compound 135, (2S)-4,4-difluoro-N-((9S,12S)-5^4-methyl-8,11,14-trioxo-9-phenethyl-4-oxa-7,10-diaza-1(3,1)-piperidina-5(1,3)-benzenacyclotetradecaphane-12-yl)pyrrolidine-2-carboxamide]: the IC50 in test [1] and in test [2] was less than 100 nM each time.
Regarding `Cc1ccc2cc1CNC(=O)[C@@H](CCc1ccccc1)NC(=O)[C@H](NC(=O)OCc1ccccc1)CC(=O)N1CCC[C@H](CCO2)C1` [Compound 290, benzyl ((13R,9R,12R)-5^4-methyl-8,11,14-trioxo-9-phenethyl-4-oxa-7,10-diaza-1(3,1)-piperidina-5(1,3)-benzenacyclotetradecaphane-12-yl)carbamate], the IC50 in test [1] is 500 to 1000 nM; in test [2], greater than 5000 nM.
In the same order, the values of `Cc1ccc2cc1CNC(=O)[C@H](CCc1ccccc1)NC(=O)[C@@H](NC(=O)C(C)(C)CO)CC(=O)N1CCCC(CCO2)C1` (stereo partly drawn) [Compound 284, 3-hydroxy-2,2-dimethyl-N-((9S,12S)-5^4-methyl-8,11,14-trioxo-9-phenethyl-4-oxa-7,10-diaza-1(3,1)-piperidina-5(1,3)-benzenacyclotetradecaphane-12-yl)propanamide] are less than 100 nM and 100 to 500 nM.
In the same order, the values of `Cc1ccc2cc1CNC(=O)[C@H](CCc1ccccc1)NC(=O)[C@@H](NC(=O)C1(F)CCNCC1)CC(=O)N1CCCC(CCO2)C1` (stereo partly drawn) [Compound 134, 4-fluoro-N-((9S,12S)-5^4-methyl-8,11,14-trioxo-9-phenethyl-4-oxa-7,10-diaza-1(3,1)-piperidina-5(1,3)-benzenacyclotetradecaphane-12-yl)piperidine-4-carboxamide] are less than 100 nM and less than 100 nM.
In the same order, the values of `Cc1ccc2cc1CNC(=O)[C@H](CCc1ccccc1)NC(=O)[C@@H](NC(=O)c1ccccn1)CC(=O)N1CCCC(CCO2)C1` (stereo partly drawn) [Compound 40, N-((9S,12S)-5^4-methyl-8,11,14-trioxo-9-phenethyl-4-oxa-7,10-diaza-1(3,1)-piperidina-5(1,3)-benzenacyclotetradecaphane-12-yl)picolinamide] are less than 100 nM and less than 100 nM.
For the molecule `Cc1ccc2cc1CNC(=O)[C@H](CCc1ccccc1)NC(=O)[C@@H](NC(=O)C(C)(CO)CO)CC(=O)N1CCCC(CCO2)C1` (stereo partly drawn) [Compound 286, 3-hydroxy-2-(hydroxymethyl)-2-methyl-N-((9S,12S)-5^4-methyl-8,11,14-trioxo-9-phenethyl-4-oxa-7,10-diaza-1(3,1)-piperidina-5(1,3)-benzenacyclotetradecaphane-12-yl)propanamide], the IC50 in test [1] was less than 100 nM; in test [2], 100 to 500 nM.
In the same order, the values of `Cc1ccc2cc1CNC(=O)[C@H](CCc1ccccc1)NC(=O)[C@@H](NC(=O)C1(C)CCOCC1)CC(=O)N1CCCC(CCO2)C1` (stereo partly drawn) [Compound 288, 4-methyl-N-((9S,12S)-5^4-methyl-8,11,14-trioxo-9-phenethyl-4-oxa-7,10-diaza-1(3,1)-piperidina-5(1,3)-benzenacyclotetradecaphane-12-yl)tetrahydro-2H-pyran-4-carboxamide] are less than 100 nM and 100 to 500 nM.
In the same order, the values of `Cc1ccc2cc1CNC(=O)[C@H](CCc1ccccc1)NC(=O)[C@@H](N1C(=O)CCC1=O)CC(=O)N1CCCC(CCO2)C1` (stereo partly drawn) [Compound 43, (9S,12S)-12-(2,5-dioxopyrrolidin-1-yl)-5^4-methyl-9-phenethyl-4-oxa-7,10-diaza-1(3,1)-piperidina-5(1,3)-benzenacyclotetradecaphane-8,11,14-trione] are less than 100 nM and 100 to 500 nM.
